{"source": "patent US12491173B2", "about": "“Metabolism-improving agent comprising rare fatty acid” (Noster Inc., priority 2014, dated 2025)", "key": {"[1]": {"target": "T1, fusion protein of PPARγ ligand binding region and GAL4 DNA binding region (Homo sapiens, UniProt P37231)", "T1 construct": "expressed in transfected cells; host or cells: CV-1 cell", "T1 sequence (P37231 238-503 limits assumed)": "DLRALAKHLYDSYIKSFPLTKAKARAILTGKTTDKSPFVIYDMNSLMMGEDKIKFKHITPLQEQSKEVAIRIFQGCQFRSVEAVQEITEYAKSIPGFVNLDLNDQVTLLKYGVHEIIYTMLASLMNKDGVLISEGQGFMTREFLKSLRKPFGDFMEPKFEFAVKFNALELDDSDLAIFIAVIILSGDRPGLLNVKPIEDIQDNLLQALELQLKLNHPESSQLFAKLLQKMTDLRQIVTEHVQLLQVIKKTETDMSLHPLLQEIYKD", "assay": "PPARγ ligand activity, GAL4 fusion luciferase reporter assay in CV-1 cell", "assay_type": "cell-based", "conditions": "sample 10 μM and 30 μM, vs ethanol negative control, FIG. 3", "description": "(§1) To evaluate the function of hydroxylated fatty acid and oxo fatty acid and the like, PPARα, γ-activating action was measured first. The measurement was performed in reference to Nobuyuki Takahashi et al., FEBS Letters 514 (2002) p. 315-322, “Dual action of isoprenols from herbal medicines on both PPARgamma and PPARalpha in 3T3-L1 adipocytes and HepG2 hepatocytes.”, the section of Materials and Methods “Reporter plasmids and luciferase assays”. To be specific, PPARα,γ ligand activity was measured by a reporter assay that evaluates binding to a fusion protein of PPAR ligand binding region and GAL4 DNA binding region and target gene activation, based on the expression of luciferase. Specifically, a plasmid comprising a DNA encoding a fusion protein of PPARα,γ ligand binding region and GAL4 DNA binding region and a reporter plasmid wherein luciferase linked to GAL4 bound DNA sequence were introduced into CV-1 cell, a ligand described below was added to the cell, the cell was incubated and the luciferase activity was detected.\n(§2) The concentration (10 μM and 30 μM) of the sample was adjusted with ethanol. Ethanol was used as a negative control, and PPARα,γ ligands GW7647 (10 nM) and troglitazone (5 μM) were used as a positive control."}, "[2]": {"target": "T2, fusion protein of PPARα ligand binding region and GAL4 DNA binding region (Homo sapiens, UniProt Q07869)", "T2 construct": "expressed in transfected cells; host or cells: CV-1 cell", "T2 sequence (Q07869 239-466 limits assumed)": "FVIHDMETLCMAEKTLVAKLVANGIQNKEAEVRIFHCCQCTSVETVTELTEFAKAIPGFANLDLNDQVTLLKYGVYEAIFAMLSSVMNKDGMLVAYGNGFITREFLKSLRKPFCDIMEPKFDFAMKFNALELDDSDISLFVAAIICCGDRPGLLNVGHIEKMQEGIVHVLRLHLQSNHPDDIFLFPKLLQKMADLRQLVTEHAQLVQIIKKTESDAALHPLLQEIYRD", "assay": "PPARα ligand activity, GAL4 fusion luciferase reporter assay in CV-1 cell", "assay_type": "cell-based", "conditions": "sample 10 μM and 30 μM, vs ethanol negative control, FIG. 2", "description": "as §1, §2"}}}
{"molecule": "CC/C=C\\CC(=O)CC/C=C\\CCCCCCCC(=O)O", "note": "[13-OXO ALA, 13-oxo-cis-9,cis-15-octadecadienoic acid]", "values": [{"measurement": "PPARγ agonist activity (relative luciferase activity)", "setting": "[1]", "result": "strong PPARγ agonist activity"}]}
{"molecule": "CCCCCC(=O)CC/C=C\\C/C=C\\CCCCC(=O)O", "note": "[13-OXO GLA, 13-oxo-cis-6,cis-9-octadecadienoic acid]", "values": [{"measurement": "PPARα agonist activity (relative luciferase activity)", "setting": "[2]", "result": "strong PPARα agonist activity"}]}
